We go through one molecule from patent US10561635B2, “Cromolyn compositions for treatment of pulmonary fibrosis” (Respivant Sciences, GmbH, priority 2016, dated 2020).

Where two headings read alike, the source gives them in different places.

A short description of series [1]: Pharmacokinetics of cromolyn sodium in plasma and lung of male BALB/c mice after a single intraperitoneal injection. The format is in vivo. The following applies: single IP injection, 10 mg/kg and 100 mg/kg. Here is the method: BALB/c male mice, weighing 22±2 g, were provided by BioLasco Taiwan. All animals were maintained in a well-controlled temperature (20-24° C.) and humidity (30%-70%) environment with 12 hours light/dark cycles. The mice were given free access to a standard lab diet [MFG (Oriental Yeast Co., Ltd., Japan)] and autoclaved tap water.
The solution was administered to the mice by IP injection at concentrations of 10 mg/kg and 100 mg/kg. The dosing volume for both dose strengths was 5 mL/kg.
The mice were sedated under general inhalant anesthesia (3% isoflurane) for blood collection by cardiac puncture. […]
The plasma samples were processed using acetonitrile (ACN) precipitation and analyzed by LC-MS/MS. […] The processed plasma samples were stored at −70° C. until receiving LC-MS/MS analysis, at which time peak areas were recorded, and the concentrations of the test substance in the unknown plasma samples were determined using the respective calibration curve. The reportable linear range of the assay was determined, along with the lower limit of quantitation (LLQ).
Each lung was homogenized in 1.5 mL cold phosphate-buffered saline (PBS) at pH 7.4 for 10 seconds on ice. The lung homogenate was centrifuged at 5,400×g for 15 minutes at 4° C., and the supernatant was subsequently processed using ACN precipitation and analyzed by LC-MS/MS. […]

Series [2] in a line: PK-01: pharmacokinetics and relative bioavailability of single doses in healthy subjects. The format is in vivo, human. As to conditions: for AUC(0-inf): human, plasma, inhaled, 40 mg, 40 mg single dose.
Procedure: This was a Phase 1, randomized, open-label, single-centre, dose-ranging, cross-over study conducted in a total of 12 healthy adult subjects of 18-45 years of age.
All study subjects received each study treatment in the morning (at 8:00 am, +/−30 minutes) as a single dose treatment. Prior to each dosing day, subjects were admitted to the clinic in the morning for baseline (pre-dose) assessments. Subjects were required to remain in the clinic for 12 h after study drug administration on each dosing day. Treatment Visits were separated by a washout period of 2 to 5 days.
The duration of the study was one day.
Urine DSCG levels were measured for total DSCG excretion in the urine, and the bioavailability of the DSCG was calculated from the measured levels.
Pharmacokinetic parameters and plasma concentrations are listed and summarized. The summary statistics are presented as the geometric mean, arithmetic mean, arithmetic standard deviation (SD), min, median, max and n. The geometric statistics are not presented for Tmax. Analysis of variance (ANOVA) including terms for subject and treatment are used to calculate point estimates, and confidence intervals (CI) for treatment differences with respect to PK parameters (90% CI) are calculated.
The conditions of series [3]: in vivo, cited from earlier work.

`O=C([O-])c1cc(=O)c2c(OCC(O)COc3cccc4oc(C(=O)O)cc(=O)c34)cccc2o1.[Na+]` [cromolyn sodium, disodium 5,5′-(2-hydroxypropane-1,3-diyl)bis(oxy)bis(4-oxo-4H-chromene-2-carboxylate)]: the “exposure of cromolyn sodium in the plasma and lungs” value in series [1] is on record as “Significant exposure”. Also, the total exposure AUC(0-inf) in series [2] (eFlow 30 L) was determined as 338 ng·h/mL; in series [2] (eFlow 40 L), 212 ng·h/mL. Besides, the “lung deposition with the 30 L device compared with the 40 L device, indicated by AUC” value in series [2] (same dose (40 mg)) was “surprisingly higher”. Besides, the oral bioavailability result is listed as “about 1%” in series [3] (listed as cromolyn) and approximately 1% in series [3].

By AUC(0-inf) is commonly meant the area under the concentration-time curve extrapolated to infinity. Low readings indicate less exposure, high ones more exposure.
